Test results reported in patent US20080241177A1 (priority 2003, published 2008).

What was measured:
[1] = Delayed type hypersensitivity (DTH) testing; assay type: in vivo, human; details: for Induration area, DTH testing: 48 hours following intradermal injection of individual peptide, after four vaccinations; for Number of patients with a peptide-specific DTH response: six trial patients who underwent DTH testing
Procedure: Delayed type hypersensitivity (DTH) testing was carried out 1 month after the final vaccination. […] Induration of […]10 mm^2 at 48 hours after injection was considered positive.

PBMCs [2] = assay: (3H)-thymidine proliferation assay; assay type: cell-based, human; details: for stimulation index: 10 μg/ml peptide
Procedure: FIG. 4. Cell-mediated response to peptide 5 in trial subject 016, measured over the course of the vaccination schedule. Patient PBMCs were stimulated with 10 μg/ml peptide 5, incubated in vitro for 6 days, pulsed with ^3H-thymidine for 18 hours and then proliferation was assessed by ^3H-thymidine incorporation.
Peripheral blood mononuclear cells (PBMCs) were plated at a concentration of 1×10^5 cells/well for thymidine proliferation and ELISpot assays and at 1×10^6 cells/well (24 well plates) for the CFSE proliferation assay. ELISpot plates were coated with mouse anti-human IFN-γ antibody (Diaclone, France) and cells for CFSE assay were stained with 5 μM CFSE-FITC (Molecular Probes, Eugene, Oreg.). All PBMCs were in RPMI supplemented with 2 mM L-glutamine, 10 mM HEPES, 100 U/mL penicillin/streptomycin and 10% human AB serum (Australian Red Cross Blood Service).
The recall antigens CMV lysate, (1/2000 dilution; BioWhittaker, Walkersville, Md.) and tetanus toxoid (2.5 Lfu/ml; CSL) were also tested. PBMCs were incubated at 37° C. and 5% CO2 atmosphere for 20 hours (ELISpot) or 6 days (proliferation assays).
In the thymidine proliferation assay, cells were pulsed with 0.5 μCi/well [methyl-^3H]-thymidine (Amersham, Buckinghamshire, UK) and harvested 18 hours later. [^3H]-thymidine incorporation was measured by liquid scintillation counting. A sample was considered to be positive when the stimulation index^22 for each well in the quadruplicate sample exceeded the mean of unstimulated cells by at least three standard deviations.

serum antibodies [3] = assay: Immunization of sheep with the vaccine, anti-peptide ELISA; details: for Polyclonal sera with reactivity to peptide obtained from immunized sheep: 200 μg peptide mixture in CpG DNA adjuvant, prime and boost
serum antibodies [4] = assay: ELISA for serum antibodies specific for the individual vaccine peptides, human sera; details: for Number of individuals with a humoral response to the vaccine peptides, Normal controls n = 30 / Percent of individuals with a humoral response to the vaccine peptides, Normal controls n = 30: n = 30, not vaccinated
PBMCs [5] = assay: CFSE proliferation assay; assay type: cell-based, human; details: subject 016, visit 5
[6] = patient 016, visit 5 (1 month after vaccination 4)
[7] = non-trial cancer controls, n = 54, sera 1:25 dilution
[8] = trial subjects who completed four vaccinations, n = 6, detectable response at any time point considered positive

Substance	Induration area, DTH testing ([1]; patient 012)	Induration area, DTH testing ([1]; patient 014)	Induration area, DTH testing ([1]; patient 015)	Induration area, DTH testing ([1]; patient 016)	Induration area, DTH testing ([1]; patient 017)	Induration area, DTH testing ([1]; patient 018)	Number of patients with a peptide-specific DTH response [1]	stimulation index (PBMCs [2]; [6])	Polyclonal sera with reactivity to peptide obtained from immunized sheep (serum antibodies [3]; two sheep)	Number of individuals with a humoral response to the vaccine peptides, Cancer controls n = 54 (serum antibodies [4]; [7])	Number of individuals with a humoral response to the vaccine peptides, Normal controls n = 30 (serum antibodies [4])	Percent of individuals with a humoral response to the vaccine peptides, Normal controls n = 30 (serum antibodies [4])	Number of individuals with a humoral response to the vaccine peptides, Trial subjects n = 6 (serum antibodies [4]; [8])	other results
H-LEWMGIINPSGGSANYAPKFKGRLTMS-OH [Peptide 1]	Neg (Neg indicates that induration (if any) was less than 10 mm^2)	Neg (Neg indicates that induration (if any) was less than 10 mm^2)	Neg (Neg indicates that induration (if any) was less than 10 mm^2)	104 mm^2	24 mm^2	Neg (Neg indicates that induration (if any) was less than 10 mm^2)	two	10.4	one animal did not respond	0	3	10%	0	Response to peptide using the polyclonal sheep sera or rabbit sera (serum antibodies [3]; polyclonal sheep sera (FIG. 2A) or rabbit sera (data not shown)): positive responses; Number of individuals with a humoral response to the vaccine peptides, Trial subjects n = 6 (serum antibodies [4]; trial subjects who completed four vaccinations, n = 6, detectable response at any time point considered positive, listed as peptide 1): No patient demonstrated a response
H-LEWVGFIRSKAYGAATAYAASMKGRVTI-OH [Peptide 5]	165 mm^2	16 mm^2	24 mm^2	269 mm^2	373 mm^2	94 mm^2	all six	22.2	obtained from both sheep	3	2	6.7%	2	stimulation index (PBMCs [2]; patient 016, visit 3 (1 month after vaccination 2)): 8.88; stimulation index (PBMCs [2]; patient 016, visit 4 (1 month after vaccination 3)): 64.6; First appearance of peptide-specific proliferative response (PBMCs [2]; patient 016, maximal after three vaccinations): visit 3; Specific proliferative response, % of circulating CD3 and CD4 positive cells (PBMCs [5]): 5.5%; Serum antibody titres, first versus second immunized sheep (serum antibodies [3]; two sheep): equivalent; Percent of individuals with a humoral response to the vaccine peptides, Cancer controls n = 54 (serum antibodies [4]; [7]): 5.6%; Isotype of peptide-specific serum antibodies (serum antibodies [4]; subject 015): IgG3; Isotype of peptide-specific serum antibodies (serum antibodies [4]; subject 016): IgG3; Percent of individuals with a humoral response to the vaccine peptides, Trial subjects n = 6 (serum antibodies [4]; [8]): 33.3%; Number of individuals with a humoral response to the vaccine peptides, Trial subjects n = 6 (serum antibodies [4]; trial subjects who completed four vaccinations, n = 6, detectable response at any time point considered positive, listed as peptide 5): two
